Experimental data from patent publication US20250270200A1, “CTPS1 INHIBITORS AND USES THEREOF” (Nimbus Clotho, Inc., priority 2022, published 2025).
Structures can show the parent of a compound that is named as a salt. Where two headings read alike, the source gives them in different places.

Target: T1, human CTPS1 (Homo sapiens, UniProt P17812)
T1 sequence (P17812 1-591): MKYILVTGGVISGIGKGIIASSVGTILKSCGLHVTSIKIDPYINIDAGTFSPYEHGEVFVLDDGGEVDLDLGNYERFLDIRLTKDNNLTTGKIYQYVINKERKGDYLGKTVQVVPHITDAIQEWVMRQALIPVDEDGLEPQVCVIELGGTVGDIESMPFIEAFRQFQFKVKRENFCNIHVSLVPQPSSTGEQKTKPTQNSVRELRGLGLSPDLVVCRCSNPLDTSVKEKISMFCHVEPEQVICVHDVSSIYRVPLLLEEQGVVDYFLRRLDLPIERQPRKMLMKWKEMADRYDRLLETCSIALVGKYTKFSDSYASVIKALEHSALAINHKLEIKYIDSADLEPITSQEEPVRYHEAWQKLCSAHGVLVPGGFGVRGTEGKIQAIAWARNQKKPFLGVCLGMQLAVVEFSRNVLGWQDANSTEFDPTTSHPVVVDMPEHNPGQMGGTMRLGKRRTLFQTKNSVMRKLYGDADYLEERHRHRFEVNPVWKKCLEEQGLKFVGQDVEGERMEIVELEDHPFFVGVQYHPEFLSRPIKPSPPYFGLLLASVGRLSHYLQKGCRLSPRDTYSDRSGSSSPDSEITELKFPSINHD
Test: ADP-Glo assay, human CTPS1 enzyme inhibition
Type: biochemical
Conditions: read-out: ADP-Glo_WT_hCTPS1—25 nM_IC50 (IC50)
Method in brief: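 Full-length tagged human CTPS1 (25 nM) pre-incubated 10 min at 25° C with compound, then 10 min with ATP (120 μM) and UTP (160 μM); reaction started with L-glutamine (100 μM) and GTP (60 μM), 1% DMSO, in HEPES pH 7.4, 10 mM Mg2+, 5 mM KCl, 2 mM DTT. Run within linear phase at 25° C; ADP measured by ADP-Glo luminescence.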

[1] = wild-type human CTPS1, 25 nM enzyme, ADP-Glo
[2] = wild-type human CTPS1 25 nM, ATP 120 μM, UTP 160 μM, GTP 60 μM, L-glutamine 100 μM, 25 degrees C.

Q: Which IC50 [1] does the source give for `CCOc1cncc(-c2ccc(C(=O)NCc3cc(NS(=O)(=O)C4CC4)ccn3)c(F)c2F)n1` [I-175, N-((4-(cyclopropanesulfonamido)pyridin-2-yl)methyl)-4-(6-ethoxypyrazin-2-yl)-2,3-difluorobenzamide] here?
A: 5 to 25 nM

Q: Which IC50 [1] does the source give for `CCOc1cncc(-c2cnc(C(=O)N[C@H](CO[C@@H]3CCOC3)c3cc(NS(=O)(=O)C4CC4)ccn3)s2)n1` [I-240, N-((S)-1-(4-(cyclopropanesulfonamido)pyridin-2-yl)-2-(((R)-tetrahydrofuran-3-yl)oxy)ethyl)-5-(6-ethoxypyrazin-2-yl)thiazole-2-carboxamide] here?
A: 5 to 25 nM

Q: `C[C@H](CO)[C@@H](NC(=O)c1ncc(-c2cnn3ccc(Cl)cc23)s1)c1cc(NS(=O)(=O)C2CC2)ccn1` [I-230, 5-(5-chloropyrazolo[1,5-a]pyridin-3-yl)-N-((1R,2S)-1-(4-(cyclopropanesulfonamido)pyridin-2-yl)-3-hydroxy-2-methylpropyl)thiazole-2-carboxamide] was tested. Which IC50 [1] did it give?
A: ≤ 5 nM

Q: `O=C(N[C@H](c1cc(NS(=O)(=O)C2CC2)ccn1)[C@@H]1CCOC1)c1ncc(-c2cnn3ccc(Cl)cc23)s1` (single isomer, unassigned) [I-23] was tested. Which IC50 [1] did it give?
A: 5 to 25 nM

Q: How did the IC50 [1] turn out when `CCOc1cncc(-c2cnc(C(=O)N[C@H](c3cc(NS(=O)(=O)C4CC4)ccn3)[C@@H](C)O)s2)n1` [I-264, N-((1R,2R)-1-(4-(cyclopropanesulfonamido)pyridin-2-yl)-2-hydroxypropyl)-5-(6-ethoxypyrazin-2-yl)thiazole-2-carboxamide] was run?
A: 5 to 25 nM

Q: Which IC50 [1] does the source give for `CCOc1cncc(-c2cnc(C(=O)N[C@@H](CCN3CCCC4(CC4)C3)c3cc(NS(=O)(=O)C4CC4)ccn3)s2)n1` (single isomer, unassigned) [I-18] here?
A: > 100 nM

Q: Which IC50 [1] does the source give for `CCOc1cncc(-c2cnc(C(=O)N[C@@H](c3cc(NS(=O)(=O)C4CC4)ccn3)C(C)(C)CN(C)C)s2)n1` [I-43, (R)-N-(1-(4-(cyclopropanesulfonamido)pyridin-2-yl)-3-(dimethylamino)-2,2-dimethylpropyl)-5-(6-ethoxypyrazin-2-yl)thiazole-2-carboxamide] here?
A: 5 to 25 nM

Q: With `O=C(N[C@@H](CN1CCOCC1)c1cc(NS(=O)(=O)C2CC2)ccn1)c1ncc(-c2cnn3ccc(Cl)cc23)s1` [I-145, (S)-5-(5-chloropyrazolo[1,5-a]pyridin-3-yl)-N-(1-(4-(cyclopropanesulfonamido)pyridin-2-yl)-2-morpholinoethyl)thiazole-2-carboxamide] as the compound, how does the IC50 [1] read?
A: 5 to 25 nM

Q: For `CCOc1cncc(-c2cnc(C(=O)N[C@H](c3cc(NS(=O)(=O)C4CC4)ccn3)[C@@H]3CCN(C4CCCC4)C3)s2)n1` [I-94, N-((S)-((R)-1-cyclopentylpyrrolidin-3-yl)(4-(cyclopropanesulfonamido)pyridin-2-yl)methyl)-5-(6-ethoxypyrazin-2-yl)thiazole-2-carboxamide], which IC50 [1] is on record?
A: > 100 nM

Q: Which IC50 [1] does the source give for `CCOc1cncc(-c2cnc(C(=O)N[C@H](c3cc(NS(=O)(=O)C4CC4)ccn3)[C@H](C)N3C[C@H]4C[C@@H]3CO4)s2)n1` [I-166, N-((1S,2S)-2-((1R,4R)-2-oxa-5-azabicyclo[2.2.1]heptan-5-yl)-1-(4-(cyclopropanesulfonamido)pyridin-2-yl)propyl)-5-(6-ethoxypyrazin-2-yl)thiazole-2-carboxamide] here?
A: 50 to 100 nM

Q: Which IC50 [1] does the source give for `CCOc1cncc(-c2cnc(C(=O)N[C@H](CO[C@H]3CCOC3)c3cc(NS(=O)(=O)C4CC4)ccn3)s2)n1` [I-241, N-((S)-1-(4-(cyclopropanesulfonamido)pyridin-2-yl)-2-(((S)-tetrahydrofuran-3-yl)oxy)ethyl)-5-(6-ethoxypyrazin-2-yl)thiazole-2-carboxamide] here?
A: 5 to 25 nM

Q: For `CCOc1cncc(-c2ccc(C(=O)N[C@H](COC)c3cc(NS(=O)(=O)C4CC4)ccn3)cc2)n1` [I-280, (S)-N-(1-(4-(cyclopropanesulfonamido)pyridin-2-yl)-2-methoxyethyl)-4-(6-ethoxypyrazin-2-yl)benzamide], which IC50 [1] is on record?
A: 25 to 50 nM

Q: How did the IC50 [1] turn out when `O=C(N[C@@H](c1cc(NS(=O)(=O)C2CC2)ccn1)[C@H]1COCCO1)c1ncc(-c2cnn3ccc(Cl)cc23)s1` [I-80, 5-(5-chloropyrazolo[1,5-a]pyridin-3-yl)-N-((S)-(4-(cyclopropanesulfonamido)pyridin-2-yl)((S)-1,4-dioxan-2-yl)methyl)thiazole-2-carboxamide] was run?
A: 5 to 25 nM

Q: `CCOc1cncc(-c2ccc(C(=O)NCc3cc(NS(=O)(=O)C4CC4)ccn3)cn2)n1` [I-172, N-((4-(cyclopropanesulfonamido)pyridin-2-yl)methyl)-6-(6-ethoxypyrazin-2-yl)nicotinamide] was tested. Which IC50 [1] did it give?
A: 25 to 50 nM

Q: How did the IC50 [1] turn out when `CCOc1cncc(-c2cnc(C(=O)N[C@H](CN3C[C@H]4C[C@@H]3CO4)c3cncc(NS(=O)(=O)C4CC4)n3)s2)n1` [I-253, N-((R)-2-((1R,4R)-2-oxa-5-azabicyclo[2.2.1]heptan-5-yl)-1-(6-(cyclopropanesulfonamido)pyrazin-2-yl)ethyl)-5-(6-ethoxypyrazin-2-yl)thiazole-2-carboxamide, formic acid salt] was run?
A: 50 to 100 nM

Q: `CCOc1cncc(-c2cnc(C(=O)N[C@H](c3cc(NS(=O)(=O)C4CC4)ccn3)[C@@H](C)OC)s2)n1` [I-45, N-((1R,2R)-1-(4-(cyclopropanesulfonamido)pyridin-2-yl)-2-methoxypropyl)-5-(6-ethoxypyrazin-2-yl)thiazole-2-carboxamide] was tested. Which IC50 [1] did it give?
A: 5 to 25 nM

Q: Which IC50 [2] does the source give for `CCOc1cncc(-c2cnc(C(=O)N[C@H](COC)c3cc(NS(=O)(=O)C4CC4)ncn3)s2)n1` (single isomer, unassigned) [II-8] here?
A: 5 to 25 nM

Q: How did the IC50 [1] turn out when `CCOc1cncc(-c2cnc(C(=O)N[C@H](c3cc(NS(=O)(=O)C4CC4)ccn3)[C@H]3C[C@H]4CC[C@@H]3O4)s2)n1` [I-83, N-((S)-((1S,2R,4R)-7-oxabicyclo[2.2.1]heptan-2-yl)(4-(cyclopropanesulfonamido)pyridin-2-yl)methyl)-5-(6-ethoxypyrazin-2-yl)thiazole-2-carboxamide] was run?
A: 5 to 25 nM

Q: How did the IC50 [2] turn out when `O=C(N[C@H](c1cc(NS(=O)(=O)C2CC2)ccn1)C1CCOCC1)c1nnc(-c2cnn3ccc(Cl)cc23)s1` (single isomer, unassigned) [II-15] was run?
A: 5 to 25 nM

Q: `O=C(NC(CN1C[C@H]2C[C@@H]1CO2)c1cc(NS(=O)(=O)C2CC2)ccn1)c1ncc(-c2cnn3ccc(Cl)cc23)s1` (stereo partly drawn) [I-159, N-(2-((1R,4R)-2-oxa-5-azabicyclo[2.2.1]heptan-5-yl)-1-(4-(cyclopropanesulfonamido)pyridin-2-yl)ethyl)-5-(5-chloropyrazolo[1,5-a]pyridin-3-yl)thiazole-2-carboxamide] was tested. Which IC50 [1] did it give?
A: 5 to 25 nM

Q: With `CCOc1cncc(-c2cnc(C(=O)N[C@@H](Cn3nccn3)c3cc(NS(=O)(=O)C4CC4)ccn3)s2)n1` [I-157, (S)-N-(1-(4-(cyclopropanesulfonamido)pyridin-2-yl)-2-(2H-1,2,3-triazol-2-yl)ethyl)-5-(6-ethoxypyrazin-2-yl)thiazole-2-carboxamide] as the compound, how does the IC50 [1] read?
A: 25 to 50 nM

Q: How did the IC50 [1] turn out when `CCOc1cncc(-c2cnc(C(=O)N[C@@H](c3cccc(NS(=O)(=O)C(F)F)c3)[C@@H](C)O)s2)n1` [I-287, N-((1S,2R)-1-(3-((difluoromethyl)sulfonamido)phenyl)-2-hydroxypropyl)-5-(6-ethoxypyrazin-2-yl)thiazole-2-carboxamide] was run?
A: 5 to 25 nM

Q: `C[C@@H](O)[C@@H](NC(=O)c1ncc(-c2cnn3ccc(Cl)cc23)s1)c1cc(NS(=O)(=O)C2CC2)ccn1` [I-274, 5-(5-chloropyrazolo[1,5-a]pyridin-3-yl)-N-((1S,2R)-1-(4-(cyclopropanesulfonamido)pyridin-2-yl)-2-hydroxypropyl)thiazole-2-carboxamide] was tested. Which IC50 [1] did it give?
A: 5 to 25 nM

Q: For `CCOc1cncc(-c2cnc(C(=O)N[C@@H](CN3CC[C@]4(CCOC4)C3)c3cc(NS(=O)(=O)C4CC4)ccn3)s2)n1` [I-127, N-((S)-1-(4-(cyclopropanesulfonamido)pyridin-2-yl)-2-((S)-2-oxa-7-azaspiro[4.4]nonan-7-yl)ethyl)-5-(6-ethoxypyrazin-2-yl)thiazole-2-carboxamide], which IC50 [1] is on record?
A: 5 to 25 nM

Q: With `O=C(N[C@H](c1nccc(NS(=O)(=O)C2CC2)c1F)[C@H]1CCOC1)c1ncc(-c2cnn3ccc(Cl)cc23)s1` (single isomer, unassigned) [II-3] as the compound, how does the IC50 [2] read?
A: 5 to 25 nM

Q: Which IC50 [1] does the source give for `CCOc1cncc(-c2cnc(C(=O)N[C@@H](C[C@H]3CCCCN3C(C)C)c3cc(NS(=O)(=O)C4CC4)ccn3)s2)n1` (single isomer, unassigned) [I-28] here?
A: ≤ 5 nM

Q: How did the IC50 [1] turn out when `O=C(N[C@H](c1ccnc(NS(=O)(=O)C2CC2)n1)[C@H]1CCOC1)c1ncc(-c2cnn3ccc(Cl)cc23)s1` [I-260, 5-(5-chloropyrazolo[1,5-a]pyridin-3-yl)-N-((S)-(2-(cyclopropanesulfonamido)pyrimidin-4-yl)((R)-tetrahydrofuran-3-yl)methyl)thiazole-2-carboxamide] was run?
A: 5 to 25 nM
